Source: patent US7491721B2, “Antimycobacterial pharmaceutical composition” (priority 2004, dated 2009)
Values after ≈ are worked out from the molar mass of the structure shown. Read-outs that look alike come from different tables or passages of the source.

How the values were obtained:
[1] = tested on: sensitive/resistant strains of M. tuberculosis; assay: Murine model of pulmonary tuberculosis, text statements not split by strain; type: in vivo, Mycobacterium tuberculosis; conditions: monotherapy
M. tuberculosis isolates = assay: microbe, parasite or virus in culture; type: cell-based, Mycobacterium tuberculosis; conditions: for MIC50 / MIC90: Mycobacterium tuberculosis; for MIC50: read-out: MIC against M. tuberculosis isolates, MIC50; for MIC90: read-out: MIC against M. tuberculosis isolates, MIC90
resistant strain of MTB = type: in vivo, Mycobacterium tuberculosis; conditions: for dose giving 2 log reduction in the organs: animals infected with resistant strains
[2] = combination study, one month, doses mg/kg: (I) 25.0 where present, INH 25.0, RIF 20.0, PYR 150.0, ETH 100.0
[3] = combination study, three months, doses mg/kg: (I) 25.0 where present, INH 25.0, RIF 20.0, PYR 150.0, ETH 100.0
[4] = combination study, two months, doses mg/kg: (I) 25.0 where present, INH 25.0, RIF 20.0, PYR 150.0, ETH 100.0
[5] = monotherapy 12.5 mg/kg, 8 Weeks Treatment (two months)
[6] = monotherapy 12.5 mg/kg, 12 Weeks Treatment (three months)
[7] = monotherapy 12.5 mg/kg, one month of treatment
[8] = monotherapy 25 mg/kg, 8 Weeks Treatment (two months)
[9] = monotherapy 25 mg/kg, 12 Weeks Treatment (three months)
[10] = monotherapy 25 mg/kg, one month of treatment
[11] = monotherapy 50 mg/kg, 8 Weeks Treatment (two months)
[12] = monotherapy 50 mg/kg, 12 Weeks Treatment (three months)
[13] = monotherapy 50 mg/kg, one month of treatment

Structure (SMILES) | MIC50 (M. tuberculosis isolates) | MIC90 (M. tuberculosis isolates) | dose giving 2 log reduction in the organs (resistant strain of MTB) | Mean Log10CFU in organs of mice infected with resistant strain of MTB, Lung (resistant strain of MTB; [2]) | Mean Log10CFU in organs of mice infected with resistant strain of MTB, Spleen (resistant strain of MTB; [2]) | Mean Log10CFU in organs of mice infected with resistant strain of MTB, Lung (resistant strain of MTB; [3]) | Mean Log10CFU in organs of mice infected with resistant strain of MTB, Spleen (resistant strain of MTB; [3]) | Mean Log10CFU in organs of mice infected with resistant strain of MTB, Lung (resistant strain of MTB; [4]) | Mean Log10CFU in organs of mice infected with resistant strain of MTB, Spleen (resistant strain of MTB; [4]) | Mean Log10CFU in organs of mice infected with resistant strain of MTB, Lung (resistant strain of MTB; [5]) | Mean Log10CFU in organs of mice infected with resistant strain of MTB, Spleen (resistant strain of MTB; [5]) | Mean Log10CFU in organs of mice infected with resistant strain of MTB, Lung (resistant strain of MTB; [6]) | Mean Log10CFU in organs of mice infected with resistant strain of MTB, Spleen (resistant strain of MTB; [6]) | Mean Log10CFU in organs of mice infected with resistant strain of MTB, Lung (resistant strain of MTB; [7]) | Mean Log10CFU in organs of mice infected with resistant strain of MTB, Spleen (resistant strain of MTB; [7]) | Mean Log10CFU in organs of mice infected with resistant strain of MTB, Lung (resistant strain of MTB; [8]) | Mean Log10CFU in organs of mice infected with resistant strain of MTB, Spleen (resistant strain of MTB; [8]) | Mean Log10CFU in organs of mice infected with resistant strain of MTB, Lung (resistant strain of MTB; [9]) | Mean Log10CFU in organs of mice infected with resistant strain of MTB, Spleen (resistant strain of MTB; [9]) | Mean Log10CFU in organs of mice infected with resistant strain of MTB, Lung (resistant strain of MTB; [10]) | further results
Cc1c(CN2CCN(c3cccc(C(F)(F)F)c3)CC2)cc(-c2ccccc2)n1NC(=O)c1ccncc1 [Compound of formula (I)] | 0.12 µg/mL | 0.25 µg/mL | 12.5 mg/kg | 2.86 ± 0.37 Log10CFU | 2.25 ± 0.18 Log10CFU | 1.30 ± 1.02 Log10CFU | 1.64 ± 1.12 Log10CFU | 2.37 ± 0.81 Log10CFU | 2.52 ± 0.48 Log10CFU | 3.32 ± 0.6 Log10CFU | 3.1 ± 1.13 Log10CFU | 2.51 ± 0.18 Log10CFU | 2.6 ± 0.34 Log10CFU | 2.97 ± 0.53 Log10CFU | 3.02 ± 0.22 Log10CFU | 2.83 ± 0.66 Log10CFU | 2.61 ± 0.56 Log10CFU | 1.86 ± 0.97 Log10CFU | 1.79 ± 0.92 Log10CFU | 2.70 ± 0.36 Log10CFU | reduction in viable bacilli in the target organs as compared to control animals ([1]; one month (Table III)): > 2 log; animals with complete absence of mycobacterium ([1]; treated for three months): 33%; MIC against M. tuberculosis isolates, Range (M. tuberculosis isolates; approximately 200 sensitive and resistant clinical isolates): 0.12 to 0.5 µg/mL; Mean Log10CFU in organs of mice infected with resistant strain of MTB, Spleen (resistant strain of MTB; [10]): 2.54 ± 0.20 Log10CFU; Mean Log10CFU in organs of mice infected with resistant strain of MTB, Lung (resistant strain of MTB; [11]): 2.51 ± 0.72 Log10CFU; Mean Log10CFU in organs of mice infected with resistant strain of MTB, Spleen (resistant strain of MTB; [11]): 2.37 ± 0.61 Log10CFU; Mean Log10CFU in organs of mice infected with resistant strain of MTB, Lung (resistant strain of MTB; [12]): 1.79 ± 0.92 Log10CFU; Mean Log10CFU in organs of mice infected with resistant strain of MTB, Spleen (resistant strain of MTB; [12]): 1.69 ± 0.88 Log10CFU; Mean Log10CFU in organs of mice infected with resistant strain of MTB, Lung (resistant strain of MTB; [13]): 2.59 ± 0.22 Log10CFU; Mean Log10CFU in organs of mice infected with resistant strain of MTB, Spleen (resistant strain of MTB; [13]): 2.32 ± 0.39 Log10CFU
NNC(=O)c1ccncc1 [Isoniazid] | 4 µg/mL (≈ 29.2 µM) | > 16 µg/mL | > 50 mg/kg | 5.23 ± 0.27 Log10CFU | 4.61 ± 0.43 Log10CFU | 5.37 ± 0.35 Log10CFU | 5.19 ± 0.65 Log10CFU | 5.15 ± 0.42 Log10CFU | 5.36 ± 0.84 Log10CFU | 6.01 ± 0.9 Log10CFU | 5.88 ± 0.41 Log10CFU | 5.1 ± 0.7 Log10CFU | 5.72 ± 0.17 Log10CFU | 5.47 ± 0.54 Log10CFU | 5.01 ± 0.45 Log10CFU | 5.91 ± 0.35 Log10CFU | 5.7 ± 0.34 Log10CFU | 4.79 ± 0.55 Log10CFU | 5.62 ± 0.63 Log10CFU | 5.34 ± 0.34 Log10CFU | Mean Log10CFU in organs of mice infected with resistant strain of MTB, Spleen (resistant strain of MTB; [10]): 4.97 ± 0.52 Log10CFU; Mean Log10CFU in organs of mice infected with resistant strain of MTB, Lung (resistant strain of MTB; [11]): 5.42 ± 0.74 Log10CFU; Mean Log10CFU in organs of mice infected with resistant strain of MTB, Spleen (resistant strain of MTB; [11]): 5.1 ± 0.61 Log10CFU; Mean Log10CFU in organs of mice infected with resistant strain of MTB, Lung (resistant strain of MTB; [12]): 4.76 ± 0.20 Log10CFU; Mean Log10CFU in organs of mice infected with resistant strain of MTB, Spleen (resistant strain of MTB; [12]): 5.64 ± 066 Log10CFU; Mean Log10CFU in organs of mice infected with resistant strain of MTB, Lung (resistant strain of MTB; [13]): 4.77 ± 0.61 Log10CFU; Mean Log10CFU in organs of mice infected with resistant strain of MTB, Spleen (resistant strain of MTB; [13]): 4.83 ± 0.68 Log10CFU
CO[C@H]1/C=C/O[C@@]2(C)Oc3c(C)c(O)c4c(O)c(c(/C=N/N5CCN(C)CC5)c(O)c4c3C2=O)NC(=O)/C(C)=C\C=C\[C@H](C)[C@H](O)[C@@H](C)[C@@H](O)[C@@H](C)[C@H](OC(C)=O)[C@@H]1C [Rifampicin] | 4 µg/mL (≈ 4.86 µM) | > 16 µg/mL |  | 3.05 ± 0.43 Log10CFU | 2.44 ± 0.32 Log10CFU | 0.94 ± 1.04 Log10CFU | 1.78 ± 1.38 Log10CFU | 2.45 ± 1.15 Log10CFU | 2.60 ± 0.59 Log10CFU |  |  |  |  |  |  |  |  |  |  |  | 
